The test addresses T1, 14-3-3/Pin1 complex (Homo sapiens, UniProt P63104).
T1 construct: made in house; host or cells: NiCo21 (DE3) E. coli
In words: FA peptide screen, 14-3-3ζ titration to client peptide and compound: Pin1. The class given is binding. To be noted: 250 μM compound. The method, then:
Since the hub protein 14-3-3 binds to hundreds of phosphoprotein partners, selectivity of PPI stabilization is a major challenge. The interplay of chemical reactivity, and the topology and functionality of the composite binding pocket shaped by 14-3-3 and Tau potentially provide entries towards selective stabilization. […] Here, 14-3-3ζ was titrated to a constant concentration of client peptide (100 nM) and compound (250 μM) to determine the SF250μM values for the particular 14-3-3 PPI. A variety of 14-3-3 binding proteins was represented in this client panel whereby the size and hydrophobicity of the +1 amino acid were varied. […]
chromatography (HisTrap high performance cartridges, Cytiva). […]
0.1% (v/v) Tween20, 0.1% (w/v) BSA). […] Measurements were performed directly after plate preparation, using a Tecan SPARK plate reader at room temperature ( λex: 485±20 nm; λem: 535±25 nm; mirror: automatic; flashes: 30; settle time: 1 ms; gain: optimal; Z -position: calculated from well). […] All data were analyzed using GraphPad Prism (10.0.1) and fitted with a four -parameter logistic model (4PL) to determine binding affinities (dissociation constant, KD). […]
Fluorescence Anisotropy – peptide screen […]

T1 sequence (P63104 whole entry, other chains not shown): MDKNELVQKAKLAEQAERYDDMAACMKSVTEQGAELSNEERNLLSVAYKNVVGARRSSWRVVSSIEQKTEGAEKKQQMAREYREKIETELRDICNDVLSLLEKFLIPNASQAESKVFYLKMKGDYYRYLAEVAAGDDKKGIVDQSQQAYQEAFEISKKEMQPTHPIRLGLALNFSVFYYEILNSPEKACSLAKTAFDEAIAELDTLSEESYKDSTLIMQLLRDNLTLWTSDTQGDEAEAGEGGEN

In the case of `CCc1ccc(-c2nccn2-c2ccc(C=O)c(Br)c2)cc1` [Compound 18], the “SF250μM for 14-3-3/Pin1 PPI stabilization” value (100 nM Pin1 peptide, 14-3-3ζ titrated) is reported as 3.9. For the same molecule, under “100 nM peptide, +1 Trp”, the “stabilization of 14-3-3/Pin1 peptide (in words)” value is given as “no significant stabilization”.
